Source: US20110093959A1, “CRYPTOTIS PARVA SCREENING MODEL FOR ANTIEMETIC POTENTIAL” (priority 2008, published 2011)
Entries after “also recorded” stand apart in the source; their conditions may differ.

How the values were obtained:
Assay type in all cases: in vivo, Cryptotis parva
Least Shrew [1] = test: Emetic effect of arachidonic acid metabolites and leukotrienes in the Least Shrew; settings: found experimentally
Method: Varying doses of leukotriene LTC4 were administered by intraperitoneal injection, and dose-response emetic effects recorded for 30 min post-injection observation period. The graph in FIG. 20 depicts enhancements in the frequency (mean±S.E.M.) of emesis.

[2] = tested on: GR73632-induced emesis and scratching in the Least Shrew; test: Antagonist interaction study against GR73632 (5 mg/kg, i.p.)-induced emesis and scratching; settings: for behavioral effect of antagonist by itself: 20 mg/kg dose, without GR73632
Excerpt: The present protocols were based upon preliminary studies as well as published findings in the Least Shrew. Darmani, 2001a; Darmani et al., 69 Pharmacol. Biochem. Behay. 239-49 (2001b). On the test day, the shrews were allowed to acclimate to the test laboratory for at least one hour prior to experimentation. To habituate the animals to the test environment, each shrew was randomly selected and transferred to a 20 cm×18 cm×21 cm clean clear plastic cage and offered four mealworms (Tenebrio sp.) 30 min prior to experimentation.
The latter doses of SP and GR73632 were chosen for subsequent antagonist interaction studies to pharmacologically characterize the role of NK1 receptors in the mediation of induced emesis by the use of: (1) two selective neurokinin NK1 receptor antagonists (CP99,994 and L733060) (Watson et al., 115 Br. J. Phramacol. 84-94 (1995); Guiard et al., 89 J. Neurochem. 54-63 (2004)); (2) an NK2 receptor antagonist (GR159897) (Beresford et al., 272 Eur. J. Pharmacol. 241-48 (1995)); and (3) an NK3 receptor antagonist (SB218795) (Salthun-Lassalle et al., 1995).
For the above drug interaction studies, different doses (i.p.) of either CP99,994 (0, 5, 10, and 20 mg/kg, n=10-14 shrews per group); L733060 (0, 5, 10, and 20 mg/kg, n=10-14 shrews per group), GR159897 (0 mg/kg and 20 mg/kg, n=8 per group) or SB218795 (0 or 20 mg/kg, n=7-8 per group) were administered to different groups of shrews 30 min prior to injection of an emetic dose (5 mg/kg, i.p.) of the NK1-receptor agonist GR73632. Emesis and scratchings were recorded for 30 min immediately following GR73632 administration as described above. The antiemetic effect of CP99,994 (0, 5, and 10 mg/kg, n=9-10 animals per group) was also investigated in a similar manner against SP (50 mg/kg, i.p.)-induced emesis.
(§1) The data on the frequency of emesis and scratchings were analyzed by the Kruskal-Wallis (KW) nonparametric one-way analysis of variance (ANOVA) and post hoc analysis by Dunn's multiple comparisons test or Mann-Whitney test. A P value of <0.05 was necessary to attain statistical significance. The incidence of emesis (number of shrews vomiting) was analyzed by the Fisher's exact test to determine whether there were differences between groups. When appropriate, pairwise comparisons were also made by this method. Two-way analysis of variance using the Kruskal-Wallis or Fisher's exact tests were initially utilized to respectively analyze the dose-response results of GR73632 on emesis and scratching behaviors, and percentage of shrews vomiting in saporin- and corresponding saline-pretreated control shrews. […] For some emesis data, the two-tailed Mann-Whitney test was used. The SP tissue concentration data were analyzed by a one-way ANOVA followed by Dunnett's t test as post hoc analysis. Fos-IR was quantified by counting immunopositive nuclei within each hemisection containing the region of interest (ROI). The number of nuclei was averaged across sections with the ROI for each animal, and the group mean and standard error obtained.

Least Shrew [3] = test: Dose response emesis and scratching studies with tachykinin receptor agonists
Excerpt: The present protocols were based upon preliminary studies as well as published findings in the Least Shrew. Darmani, 2001a; Darmani et al., 69 Pharmacol. Biochem. Behay. 239-49 (2001b). On the test day, the shrews were allowed to acclimate to the test laboratory for at least one hour prior to experimentation. To habituate the animals to the test environment, each shrew was randomly selected and transferred to a 20 cm×18 cm×21 cm clean clear plastic cage and offered four mealworms (Tenebrio sp.) 30 min prior to experimentation. […]
as §1

Molecule: O=C(O)CCC/C=C\C[C@H]1C(=O)C[C@@H](O)[C@@H]1/C=C/[C@@H](O)CCCCCO [20 Hydroxy PGE2]
- emesis in the Least Shrew (Least Shrew [1]): produce emesis

Molecule: O=C(O)CCC/C=C\C[C@@H]1[C@@H](/C=C/[C@@H](O)CCCCCO)[C@H](O)C[C@@H]1O [20 Hydroxy PGE2α]
- emesis in the Least Shrew (Least Shrew [1]): produce emesis

Molecule: COC1(C[S@@+]([O-])c2ccccc2)CCN(CCc2c[nH]c3ccc(F)cc23)CC1 [GR159897, 5-Flouro-3-[2-[4-methoxy-4-[[(R)-phenylsulphinyl]methyl]-1-piperidinyl]ethyl]-1H-indole]
- behavioral effect of antagonist by itself [2]: did not produce any behavioral effect
- enhancement of frequency of GR73632-induced emesis ([2]; antagonist 20 mg/kg i.p.): did not attain significance
- enhancement of frequency of GR73632-induced scratching ([2]; antagonist 20 mg/kg i.p.): did not attain significance
- percentage of shrews vomiting in response to GR73632 ([2]; antagonist 20 mg/kg i.p.): failed to affect

Molecule: Cl.FC(F)(F)c1cc(CO[C@H]2CCCN[C@H]2c2ccccc2)cc(C(F)(F)F)c1 [L733060]
- reduction in frequency of GR73632-induced emesis ([2]; antagonist 5 mg/kg i.p.): 62%
- reduction in percentage of shrews vomiting in response to GR73632 ([2]; antagonist 5 mg/kg i.p.): 33%
- reduction of GR73632-induced scratchings ([2]; antagonist 5 mg/kg i.p.): 63%
- reduction in frequency of GR73632-induced emesis ([2]; antagonist 10 mg/kg i.p.): 74%
- reduction in percentage of shrews vomiting in response to GR73632 ([2]; antagonist 10 mg/kg i.p.): 53%
- reduction of GR73632-induced scratchings ([2]; antagonist 10 mg/kg i.p.): 69%
- reduction in frequency of GR73632-induced emesis ([2]; antagonist 20 mg/kg i.p.): 95%
- reduction in percentage of shrews vomiting in response to GR73632 ([2]; antagonist 20 mg/kg i.p.): 73%
- reduction of GR73632-induced scratchings ([2]; antagonist 20 mg/kg i.p.): 54%
- onset of first emesis induced by GR73632 ([2]; at highest tested effective antiemetic doses): only delayed the onset of first emesis

Molecule: CCCCC/C=C\C\C=C/C=C/C=C/[C@@H]1O[C@H]1CCCC(=O)O [LTA4]
- emesis in the Least Shrew (Least Shrew [1]): non-emetic

Molecule: CCCCC/C=C\C[C@@H](O)/C=C/C=C/C=C\[C@@H](O)CCCC(=O)O [LTB4]
- emesis in the Least Shrew (Least Shrew [1]): non-emetic

Molecule: CCCCC/C=C\C\C=C/C=C/C=C/[C@@H](SC[C@H](NC(=O)CC[C@H](N)C(=O)O)C(=O)NCC(=O)O)[C@@H](O)CCCC(=O)O [LTC4]
- emesis in the Least Shrew (Least Shrew [1]): potent emetogens; also recorded: produce emesis

Molecule: CCCCC/C=C\C\C=C/C=C/C=C/[C@@H](SC[C@H](N)C(=O)NCC(=O)O)[C@@H](O)CCCC(=O)O [LTD4]
- emesis in the Least Shrew (Least Shrew [1]): potent emetogens; also recorded: produce emesis

Molecule: CCCCC/C=C\C\C=C/C=C/C=C/[C@@H](SC[C@H](N)C(=O)O)[C@@H](O)CCCC(=O)O [LTE4]
- emesis in the Least Shrew (Least Shrew [1]): non-emetic

Molecule: CCCCC/C=C\C\C=C/C=C/C=C/[C@@H](SC[C@H](NC(=O)CC[C@@H](N)C(=O)O)C(=O)O)[C@@H](O)CCCC(=O)O [LTF4]
- emesis in the Least Shrew (Least Shrew [1]): non-emetic

Molecule: CCCCC[C@H](O)/C=C/[C@H]1C(=O)C[C@H](O)[C@@H]1C/C=C\CCCC(=O)O [PGD2]
- emesis in the Least Shrew (Least Shrew [1]): non-emetic

Molecule: CCCCC[C@H](O)/C=C/[C@H]1[C@H](O)CC(=O)[C@@H]1C/C=C\CCCC(=O)O [PGE2]
- emesis in the Least Shrew (Least Shrew [1]): non-emetic

Molecule: CCCCC[C@H](O)/C=C/[C@@H]1[C@@H](C/C=C\CCCC(=O)O)[C@@H](O)C[C@H]1O [PGF2α]
- emesis in the Least Shrew (Least Shrew [1]): produce emesis

Molecule: CCCCC[C@@H](/C=C/[C@@H]1[C@@H](C/C=C\CCCC(=O)O)[C@@H]2C[C@H]1OO2)OO [PGG2]
- emesis in the Least Shrew (Least Shrew [1]): produce emesis

Molecule: CCCCC[C@H](O)/C=C/[C@@H]1[C@H]2C/C(=C/CCCC(=O)O)O[C@H]2C[C@H]1O [PGI2]
- emesis in the Least Shrew (Least Shrew [1]): non-emetic

Molecule: COC(=O)C(NC(=O)c1cc(-c2ccccc2)nc2ccccc12)c1ccccc1 (stereo not drawn) [SB218795]
- behavioral effect of antagonist by itself [2]: did not produce any behavioral effect
- enhancement of frequency of GR73632-induced emesis ([2]; antagonist 20 mg/kg i.p.): did not attain significance
- enhancement of frequency of GR73632-induced scratching ([2]; antagonist 20 mg/kg i.p.): did not attain significance
- percentage of shrews vomiting in response to GR73632 ([2]; antagonist 20 mg/kg i.p.): failed to affect

Molecule: CCCCC/C=C\C/C=C\C/C=C\C/C=C\CCCC(=O)O [arachidonic acid]
- emesis in the Least Shrew (Least Shrew [1]): produce emesis

Molecule: [Lys^3, Gly^8-R-gamma-lactam-leu^9]Neurokinin-A (3-10) [GR64349]
- produced emesis or significant scratchings (Least Shrew [3]; doses up to 10 mg/kg i.p.): neither

Molecule: [Sar^9, Met (O2)”]-Substance P [Sar Met-SP]
- percentage of shrews vomiting (Least Shrew [3]; 1 mg/kg i.p.): 20%
- percentage of shrews vomiting (Least Shrew [3]; 5 mg/kg i.p.): 33%
- percentage of shrews vomiting (Least Shrew [3]; 10 mg/kg i.p.): 0%

Molecule: acetyl-[Arg, Sar^9, Met (O2)^11]-SP (6-11) [ASMSP]
- percentage of shrews vomiting (Least Shrew [3]; 5 mg/kg i.p.): 37%
- percentage of shrews vomiting (Least Shrew [3]; 10 mg/kg i.p.): 50%
- percentage of shrews vomiting (Least Shrew [3]; 20 mg/kg i.p.): 50%
